Assay results: patent publication US20060099173A1, “Topical skin care composition” (priority 2003, published 2006)
Like-named read-outs stand apart in the source and are kept apart here.

What was measured:
[1] = description of the substance; cited from earlier work
[2] = in vivo
clinical = conditions: human, in vivo

Percutaneous absorption of unchanged drug into the systemic circulation [2] | Post-dose plasma concentrations [2] | Cmax (clinical) | Number of subjects with quantifiable plasma concentrations ([2]; human, 8 weeks) | Subjects with quantifiable plasma concentrations ([2]; human, 8 weeks) | Cmax ([2]; human) | Compound | Stability of the drug substance (light, air, moisture) [1]
minimal | undetectably low |  |  |  |  | CC1(C)O[C@@H]2C[C@H]3[C@@H]4C[C@H](F)C5=CC(=O)C=C[C@]5(C)[C@@]4(F)[C@@H](O)C[C@]3(C)[C@]2(C(=O)CO)O1 [fluocinolone acetonide, (6,11,16)-6,9-difluoro-11,21-dihydroxy-16,17-[(1-methylethylidene)bis(oxy)]-pregna-1,-4-diene-3,20-dione] | stable in light
minimal | undetectably low | 25.6 to 86.5 ng/mL | 8 | 18% |  | Oc1ccc(O)cc1 [hydroquinone, 1,4-benzenediol] | darken on exposure to air
minimal |  | 2.01 to 5.34 ng/mL |  |  | 2.0 to 4.99 ng/mL | CC1=C(/C=C/C(C)=C/C=C/C(C)=C/C(=O)O)C(C)(C)CCC1 [tretinoin, (all-E)-3,7-dimethyl-9-(2,6,6-trimethyl-l-cyclohexen-1-yl)-2,4,6,8-nonatetraenoic acid] | highly reactive to light and moisture
